Assay results reported in patent US20250049914A1, “STEROID ACID-PEPTIDE BASED INTRACELLULAR CARGO DELIVERY” (DEFENCE THERAPEUTICS INC., priority 2021, published 2025).
Where no end group is shown, it is not given here.

Key:
JIMT-1 cells = experiment: Cas9-GFP delivery with Lipofectamine CRISPRMAX transfection reagent; assay type: cell-based
Description: To assess whether the enhanced intracellular delivery conferred by bile acid-NLS moieties is compatible with other delivery technologies, a delivery experiment in JIMT-1 cells was performed using Lipofectamine™ CRISPRMAX™ Cas9 Transfection Reagent (Thermo Fisher Scientific) according to the manufacturer's protocol, except that the cargo was Cas9-GFP alone or conjugated to/mixed with different bile acid-NLS moieties. The results are shown in Table 3 with GFP fluorescence values being normalized to that of cells incubated with the unconjugated cargo/transfection reagent alone (Cas9-GFP alone). […] Fluorescence microscopy experiments in live cells confirmed that the Cas9-GFP cargoes were successfully delivered to the nucleus of JIMT-1 cells (data not shown).

BMDCs = experiment: Antigen-presentation assay using the B3Z reporter system, BMDCs; assay type: cell-based, mouse; conditions: BMDCs, OVA admixed, best conjugate: antigen ratio
Description: Mouse bone marrow derived DCs (BMDCs) were generated by flushing the whole marrow from mouse femurs using RPMI™ 1640 supplemented with 10% fetal bovine serum (FBS), 50 U/mL Penicillin-Streptomycin, 2 mM L-glutamine, 10 mM HEPES, 1% MEM Non-essential Amino Acids, 1 mM Sodium Pyruvate, 0.5 mM beta-mercaptoethanol. Following red blood cell lysis, cells were then cultured in media supplemented with 50 ng/mL murine recombinant GM-CSF. The media was changed on days 2, 4, 6 and 8. On day 9, the media was replaced to include recombinant murine GM-CSF and LPS from Escherichia coli 0111 (1 ng/mL) to stimulate DC maturation. Mature DCs were assessed by flow cytometry for their surface expression of CD3, CD19, NK1.1, CD11c, CD80, CD86, and I-A^b.
(§1) Various bile acid-NLS conjugates were screened using the B3Z reporter system. The B3Z cell line is a T-cell hybridoma specific for the H2-K^b-[…] complex. Once activated via its TCR, the LacZ reporter gene (under the NFAT promoter control) is expressed. Briefly, 1.5×10^5 BMDCs or 2.5×10^5 MSCs were co-cultured with 5×10^4 B3Z cells treated with the mixing conditions of ovalbumin (OVA) and bile acid-NLS conjugates for overnight at 37° C. with 5% CO2. The following day, all cells were washed twice with PBS (pH 7.4), and the cell pellets were lysed by adding 100 μL of a lysis buffer containing 0.15 mM chlorophenol red-beta-D-galactopyranoside (CPRG) substrate (Calbiochem, La Jolla, CA), 0.125% NP40 (EMD Sciences, La Jolla, CA), 9 mM MgCl2 (Aldrich, USA) and 100 mM 2-mercaptoethanol in PBS. After a 5- or 24-h incubation at 37° C., absorbance was taken at 570 nm with 636 nm as the reference wavelength. For these experiments, OVA was re-suspended in PBS (pH 7.3) at 5-10 mg/mL. The different bile acid-NLS conjugates were re-suspended in H2O at 10 mg/mL. Bile acid-NLS conjugate: antigen mixtures were prepared at different molar ratios according to Table 1.
Variants of CA-SV40NLS were synthesized in order to explore structure-activity relationships relating to the antigen cross-presentation enhancing activity observed for this conjugate, and therefore a measure of antigen/cargo delivery. More particularly, conjugates having different bile acids conjugated to the SV40NLS peptide (SEQ ID NO: 1) were synthesized and their effect on antigen presentation was evaluated by using the B3Z reporter system with the OVA antigen as described in Example 1. […] In FIG. 11, no increase in antigen cross-presentation in BMDCs over the antigen alone (“OVA”) was observed when OVA was mixed with either unconjugated cholic acid (“CA”) or SV40NLS peptide (“SV40NLS”), although lower sensitivity of the B3Z reporter system as compared to the OT-I CD8 T cell-based assay may have been a factor.
(§2) Further variants of CA-SV40NLS were synthesized in which the SV40NLS peptide was replaced with peptides comprising other NLS's (Table 5) and the antigen presentation activities of the CA-NLS peptide conjugates were evaluated using the B3Z reporter system as described in Example 1. The following conjugate: antigen molar ratios were tested for each conjugate: 2:1, 4:1, 8:1, 12:1 and 22:1. The results in FIGS. 12-15 compare the antigen presentation activities of different conjugates at the conjugate: antigen ratio that yielded the highest B3Z response (OD570) for that conjugate.

[1] = system: cross-presenting mesenchymal stromal cell line (cpMSC); experiment: Antigen-presentation assay using the B3Z reporter system, cross-presenting MSC line; assay type: cell-based; conditions: cpMSCs, OVA admixed, vs OVA alone or OVA mixed with CA-SV40NLS
Description: as §1, §2

Substance: CA-HuR: cholic acid conjugated to HuR NLS peptide CGRFSPMGVDHMSGLSGVNVPG (SEQ ID NO: 13) (not fully specified (N-terminus); also: cholic acid conjugate, site not given here)
- increase in intracellular Cas9-GFP delivery vs Cas9-GFP/transfection reagent alone (JIMT-1 cells): 17 fold
- antigen-presentation activity of cholic acid-NLS peptide conjugates (B3Z response) (BMDCs): high antigen presentation activity
- antigen-presentation activity of cholic acid-NLS peptide conjugates (B3Z response) [1]: strikingly high antigen-presentation activity
